Data on 19 compounds can be found in patent US10501421B1, “Substituted benzimidazoles as modulators of Ras signaling” (VANDERBILT UNIVERSITY, priority 2017, dated 2019).

Counter-ions that a name gives are not always drawn. Like-named read-outs stand apart in the source and are kept apart here.

Assay [1] has as its target Ras GEF SOS (Son of Sevenless) (Homo sapiens, UniProt Q07889). Description: SOS-mediated nucleotide exchange on Ras (BODIPY-GDP fluorescence). The class given is biochemical. Particulars: SOS-mediated exchange of BODIPY-GDP for GTP on Ras. The gist of the method:
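Exchange rates were taken from single-exponential fits of the fluorescence time course as BODIPY-GDP on Ras was replaced by GTP. Compound went in first, then GTP and SOS. Mean rates plotted against concentration gave EC50 by four-parameter dose-response fitting.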

In the next assay the target is T1, Son of Sevenless (SOS) (Homo sapiens, UniProt Q07889).
T1 sequence (Q07889 564-1049 limits assumed): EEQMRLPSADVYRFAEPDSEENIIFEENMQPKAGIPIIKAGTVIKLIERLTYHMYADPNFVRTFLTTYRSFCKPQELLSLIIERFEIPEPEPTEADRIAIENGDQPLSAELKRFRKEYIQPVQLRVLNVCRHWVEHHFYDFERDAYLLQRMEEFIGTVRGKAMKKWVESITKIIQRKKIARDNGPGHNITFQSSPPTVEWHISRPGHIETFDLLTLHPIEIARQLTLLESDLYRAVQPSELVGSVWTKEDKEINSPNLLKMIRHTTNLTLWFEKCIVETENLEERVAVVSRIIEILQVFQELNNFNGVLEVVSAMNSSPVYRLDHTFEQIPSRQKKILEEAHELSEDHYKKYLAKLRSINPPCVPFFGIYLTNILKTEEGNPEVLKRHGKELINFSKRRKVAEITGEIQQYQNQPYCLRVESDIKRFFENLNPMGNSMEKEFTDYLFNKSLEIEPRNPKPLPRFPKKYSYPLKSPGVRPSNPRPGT
Description: Binding to SOS, fluorescence polarization anisotropy (FPA) probe displacement. The following applies: displacement of FITC-conjugated probe (Example 285), affinity calculated from IC50. In short, it runs like this:
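Test compounds were titrated against SOS pre-bound to a fluorescein-labelled probe, with anisotropy plotted versus compound concentration. Binding affinities were derived from IC50 values obtained by four-parameter dose-response fitting.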

The test system of assay [2] is H727 lung cancer cell lines (G12V K-Ras mutation). Put plainly: Inhibition of cancer cell proliferation (CellTiter-Glo). The class given is cell-based. The following applies: Homo sapiens, NCI-H727, 72 h, read-out: Cell proliferation activity (H727 cancer cell line proliferation IC50). The gist of the method: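 H727 cells (K-Ras G12V), 1000/well, plated overnight then exposed to a compound dose range for 3 days at 37 °C. Proliferation by CellTiter-Glo, normalized to DMSO; IC50 from four-parameter variable-slope fit.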

Setting [3] is: H727 cells, 3 days treatment, CellTiter-Glo.

Ras GEF SOS (Son of Sevenless), sequence (P01112 1-166 partner limits assumed, one chain of several): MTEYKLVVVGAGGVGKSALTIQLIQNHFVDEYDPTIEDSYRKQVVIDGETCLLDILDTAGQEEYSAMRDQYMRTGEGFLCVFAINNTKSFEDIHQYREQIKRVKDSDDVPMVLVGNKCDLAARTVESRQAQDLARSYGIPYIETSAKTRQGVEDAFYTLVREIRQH

Compound `CCc1cc(Cn2c(N3CCNCC3)nc3cc(C)c(C)cc32)cc(Cl)c1F` [Example 48, 1-(3-chloro-5-ethyl-4-fluorobenzyl)-5,6-dimethyl-2-(piperazin-1-yl)-1H-benzo[d]imidazole trifluoroacetate] yielded an EC50 in assay [1] of 1 to 5 µM. Further, the Ki on Son of Sevenless (SOS) is 1 to 5 µM. Also, the IC50 in assay [2] lay within 1 to 5 µM.
Consider `Cc1cc(Cn2c(N3CC(CN)C3)nc3ccc(OC(C)C(F)(F)F)nc32)ccc1F` (stereo not drawn) [Example 259, (1-(3-(4-fluoro-3-methylbenzyl)-5-((1,1,1-trifluorpropan-2-yl)oxy)-3H-imidazo[4,5-b]pyridin-2-yl)azetidin-3-yl)methanamine], for which the EC50 in assay [1] lay within 5 to 30 µM. On Son of Sevenless (SOS), the Ki is more than 5 µM. Also, the IC50 in assay [2] (setting [3]) is less than 1 µM.
The matching figures for `Cc1cnc2nc(N3CC(CN)C3)n(Cc3ccc(F)c(C)c3)c2c1` [Example 248, (1-(1-(4-fluoro-3-methylbenzyl)-6-methyl-1H-imidazo[4,5-b]pyridin-2-yl)azetidin-3-yl)methanamine]: less than 1 µM, 0.5 to 1 µM and 5 to 20 µM.
In assay [1], `Fc1ccc(Cn2c(N3CCNCC3)nc3c(-c4ccnn4-c4ccc(Br)cc4)cc(Cl)cc32)cc1Cl` [Example 170, 4-(1-(4-bromophenyl)-1H-pyrazol-5-yl)-6-chloro-1-(3-chloro-4-fluorobenzyl)-2-(piperazin-1-yl)-1H-benzo[d]imidazole trifluoroacetate] gave an EC50 of 1 to 5 µM. Also, the Ki at Son of Sevenless (SOS) is less than 0.5 µM. The IC50 in assay [2] was 5 to 20 µM.
In the case of `Cc1cc(Cn2c(N3CCNCC3)nc3c([C@@H](N)c4ccccc4)cc(Cl)cc32)cc(C)c1F` [Example 159, (S)-(6-chloro-1-(4-fluoro-3,5-dimethylbenzyl)-2-(piperazin-1-yl)-1H-benzo[d]imidazol-4-yl)(phenyl)methanamine trifluoroacetate], the EC50 in assay [1] is less than 1 µM. Also, the Ki at Son of Sevenless (SOS) is less than 0.5 µM. Besides, in assay [2], the IC50 is less than 1 µM.
Compound `Cc1cc2c(nc(NCCN)n2Cc2ccc(F)c(Cl)c2)c(-c2c(C)nn(C)c2C)c1C` [Example 114, N^1-(1-(3-chloro-4-fluorobenzyl)-5,6-dimethyl-4-(1,3,5-trimethyl-1H-pyrazol-4-yl)-1H-benzo[d]imidazol-2-yl)ethane-1,2-diamine trifluoroacetate] came in with an EC50 in assay [1] of 1 to 5 µM. Further, on Son of Sevenless (SOS), the Ki was 1 to 5 µM. Further, the IC50 in assay [2] was 5 to 20 µM.
As to `Cc1cc2c(nc(N3CCNCC3)n2Cc2ccc(Cl)cc2)c(-c2ccccc2Cl)c1C` [Example 106, 1-(4-chlorobenzyl)-4-(2-chlorophenyl)-5,6-dimethyl-2-(piperazin-1-yl)-1H-benzo[d]imidazole trifluoroacetate], in assay [1], the EC50 was in the range of 1 to 5 µM. For the same compound, the Ki on Son of Sevenless (SOS) is 1 to 5 µM. In assay [2], the IC50 is 1 to 5 µM.
On to `Cc1cc(CN2CCCCC2)c2nc(N3CCNCC3)n(Cc3cc(C)c(F)c(C)c3)c2c1` [Example 125, 1-(4-fluoro-3,5-dimethylbenzyl)-6-methyl-2-(piperazin-1-yl)-4-(piperidin-1-ylmethyl)-1H-benzo[d]imidazole trifluoroacetate], for which the EC50 in assay [1] fell in the range of 1 to 5 µM. In addition, the Ki on Son of Sevenless (SOS) was 1 to 5 µM. The IC50 in assay [2] fell in the range of 1 to 5 µM.
Take `Cc1cc(-c2ccccc2F)c2nc(N3CCNCC3)n(Cc3ccc(F)c(Cl)c3)c2c1` [Example 119, 1-(3-chloro-4-fluorobenzyl)-4-(2-fluorophenyl)-6-methyl-2-(piperazin-1-yl)-1H-benzo[d]imidazole trifluoroacetate]: in assay [1], the EC50 lay in the range of 1 to 5 µM. Besides, the Ki at Son of Sevenless (SOS) is less than 0.5 µM. The IC50 in assay [2] was more than 20 µM.
Regarding `C=Cc1cc(Cn2c(N3CCNCC3)nc3cc(C)c(C)cc32)ccc1F` [Example 52, 1-(4-fluoro-3-vinylbenzyl)-5,6-dimethyl-2-(piperazin-1-yl)-1H-benzo[d]imidazole trifluoroacetate], the EC50 in assay [1] lay in the range of 5 to 30 µM. Also, the Ki on Son of Sevenless (SOS) was more than 5 µM. For the same compound, the IC50 in assay [2] was more than 20 µM.
For the compound `Cc1cc2c(nc(N3CCNCC3)n2Cc2ccc(Cl)cc2)c(-c2ccccc2F)c1C` [Example 107, 1-(4-chlorobenzyl)-4-(2-fluorophenyl)-5,6-dimethyl-2-(piperazin-1-yl)-1H-benzo[d]imidazole trifluoroacetate], the EC50 in assay [1] was in the range of 1 to 5 µM. Also, at Son of Sevenless (SOS), the Ki was 1 to 5 µM. In assay [2], the IC50 was in the range of 5 to 20 µM.
As for `CC[C@H](N)c1cc(C)cc2c1nc(N1CCNCC1)n2Cc1cc(C)c(F)c(C)c1` [Example 161, (S)-1-(1-(4-fluoro-3,5-dimethylbenzyl)-6-methyl-2-(piperazin-1-yl)-1H-benzo[d]imidazol-4-yl)propan-1-amine trifluoroacetate], the EC50 in assay [1] is less than 1 µM. Moreover, the Ki at Son of Sevenless (SOS) was 0.5 to 1 µM. Moreover, the IC50 in assay [2] fell in the range of 1 to 5 µM.
Regarding `Cc1cc(-c2ccccc2C)c2nc(N3CCNCC3)n(Cc3ccc(F)c(Cl)c3)c2c1` [Example 120, 1-(3-chloro-4-fluorobenzyl)-6-methyl-2-(piperazin-1-yl)-4-(o-tolyl)-1H-benzo[d]imidazole trifluoroacetate], in assay [1], the EC50 lay within 1 to 5 µM. In addition, the Ki on Son of Sevenless (SOS) was less than 0.5 µM. In addition, in assay [2], the IC50 lay in the range of 1 to 5 µM.
In turn, `Cc1cc2c(nc(NCCN)n2Cc2ccc(F)c(Cl)c2)c(-c2ccccc2)c1C` [Example 111, N^1-(1-(3-chloro-4-fluorobenzyl)-5,6-dimethyl-4-phenyl-1H-benzo[d]imidazol-2-yl)ethane-1,2-diamine trifluoroacetate] displayed an EC50 in assay [1] of 1 to 5 µM. Also, the Ki on Son of Sevenless (SOS) was 1 to 5 µM. In assay [2], the IC50 was in the range of 1 to 5 µM.
`C=C[C@H](N)c1cc(Cl)cc2c1nc(NCCN)n2Cc1cc(C)c(F)c(C)c1` [Example 156, (S)—N^1-(4-(1-aminoallyl)-6-chloro-1-(4-fluoro-3,5-dimethylbenzyl)-1H-benzo[d]imidazol-2-yl)ethane-1,2-diamine trifluoroacetate]: the EC50 in assay [1] was less than 1 µM. At Son of Sevenless (SOS), the inhibition constant Ki was less than 0.5 µM. For the same compound, the IC50 in assay [2] lay in the range of 1 to 5 µM.
In turn, `Cc1cc(-c2cccc3c2nc(N2CCNCC2)n3Cc2ccc(F)c(Cl)c2)n(C)n1` [Example 93, 1-(3-chloro-4-fluorobenzyl)-4-(1,3-dimethyl-1H-pyrazol-5-yl)-2-(piperazin-1-yl)-1H-benzo[d]imidazole] had a concentration giving a half-maximal response (EC50) in assay [1] of 1 to 5 µM. The Ki on Son of Sevenless (SOS) is 1 to 5 µM. In addition, in assay [2] (setting [3]), the IC50 is 1 to 5 µM.
The compound `Cc1cc(CN(C)C)c2nc(N3CCNCC3)n(Cc3cc(C)c(F)c(C)c3)c2c1` [Example 128, 1-(1-(4-fluoro-3,5-dimethylbenzyl)-6-methyl-2-(piperazin-1-yl)-1H-benzo[d]imidazol-4-yl)-N,N-dimethylmethanamine trifluoroacetate] returned an EC50 in assay [1] of less than 1 µM. At Son of Sevenless (SOS), the Ki was 0.5 to 1 µM. In addition, the IC50 in assay [2] was in the range of 1 to 5 µM.
As for `Cc1cc(CN2CCOCC2)c2nc(N3CCNCC3)n(Cc3cc(C)c(F)c(C)c3)c2c1` [Example 127, 4-((1-(4-fluoro-3,5-dimethylbenzyl)-6-methyl-2-(piperazin-1-yl)-1H-benzo[d]imidazol-4-yl)methyl)morpholine trifluoroacetate], the EC50 in assay [1] is 1 to 5 µM. The inhibition constant (Ki) on Son of Sevenless (SOS) was 1 to 5 µM. In assay [2], the IC50 lay in the range of 1 to 5 µM.
In turn, `Fc1ccc(Cn2c(NC3CCNC3)nc3ccc(Cl)cc32)cc1Cl` (stereo not drawn) [Example 77, 6-chloro-1-(3-chloro-4-fluorobenzyl)-N-(pyrrolidin-3-yl)-1H-benzo[d]imidazol-2-amine trifluoroacetate] came in with an EC50 in assay [1] of less than 1 µM. Moreover, on Son of Sevenless (SOS), the Ki was 0.5 to 1 µM. Further, in assay [2], the IC50 was 1 to 5 µM.

Broadly, the EC50 is the concentration that produces a half-maximal response. Lower therefore signals a more potent agent. As usually defined, the Ki is a dissociation constant, usually derived from enzyme kinetics or from competition with a known ligand.
